Legend:
RIPK1 and VHL = molecular target: T1, RIPK1 and VHL (Homo sapiens, UniProt P40337+Q13546); test: NanoBRET live-cell ternary complex assay; format: cell-based; conditions: HEK293 cells co-transfected with nLuc-RIPK1 and VHL-Halo
T1 construct: Addgene backbone 87075 (RIPK1 vector, made in house) N273A; host or cells: HEK293T
Description: Figure 2 LD4172, a RIPK1 PROTAC, induces potent and highly specific degradation of RIPK1 in a panel of cell lines. A, Chemical structures of RIPK1 PROTAC, LD4172, and its negative control, LD4172-NC. […] B, Quantification of RIPK1 levels in both Jurkat and B16F10 cells treated with LD4172 at indicated concentrations for 24 h, followed by Western blotting. C, DC50 and Dmax of LD4172 in various human and mouse cell lines. DC50, the drug concentration causing 50% protein degradation; Dmax, the maximum level of protein degradation. D, RIPK1 degradation kinetics induced by LD4172 treatment (1 μM) and resynthesis kinetics upon washout of LD4172 in both Jurkat and B16F10 cells. […] G, Time-resolved fluorescence resonance energy transfer (TR-FRET) based biochemical binding assay for RIPK1. […] In total, ~10,000 proteins were quantified in the proteomics experiment. […]
Human RIPK1 cDNA insert was cloned into pLenti6.2-ccdB-nLuc plasmid (87075, Addgene, a kind gift from Taipale Lab) using gateway cloning kit (11791020, Thermo) and standard protocol to obtain pLenti6.2-RIPK1-nLuc fusion vector. […] Immediately before reading the plate, prepare 4x concentrated NanoGlo nLuc substrate (N157, Promega) was prepared by diluting the stock into Opti-MEM 1,000-fold, and the NanoGlo substrate was then added into each well to bring the final concentration to 1x. […]

[1] = molecular target: T2, nLuc-RIPK1 fusion protein (Homo sapiens, UniProt Q13546); test: NanoBRET based in-cell RIPK1 target engagement
T2 construct: expressed in transfected cells
T2 sequence (Q13546 1-671): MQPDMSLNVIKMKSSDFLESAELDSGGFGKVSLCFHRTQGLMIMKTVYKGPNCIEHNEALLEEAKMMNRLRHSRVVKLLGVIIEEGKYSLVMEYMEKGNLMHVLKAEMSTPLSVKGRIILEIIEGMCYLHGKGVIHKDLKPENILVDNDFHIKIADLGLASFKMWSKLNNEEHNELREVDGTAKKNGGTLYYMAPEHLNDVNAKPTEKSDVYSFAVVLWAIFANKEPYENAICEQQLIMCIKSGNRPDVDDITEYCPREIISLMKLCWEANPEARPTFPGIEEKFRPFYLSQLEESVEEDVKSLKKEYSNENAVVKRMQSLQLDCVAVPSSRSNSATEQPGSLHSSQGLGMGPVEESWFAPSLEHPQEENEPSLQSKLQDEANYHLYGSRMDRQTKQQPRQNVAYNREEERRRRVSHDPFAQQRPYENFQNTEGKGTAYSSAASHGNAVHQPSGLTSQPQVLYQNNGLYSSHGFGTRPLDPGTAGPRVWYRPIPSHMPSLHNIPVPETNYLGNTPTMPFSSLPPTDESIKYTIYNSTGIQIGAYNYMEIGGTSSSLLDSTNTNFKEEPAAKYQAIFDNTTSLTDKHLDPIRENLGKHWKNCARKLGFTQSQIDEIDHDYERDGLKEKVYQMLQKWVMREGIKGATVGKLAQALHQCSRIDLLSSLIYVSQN
Description: Figure 2 LD4172, a RIPK1 PROTAC, induces potent and highly specific degradation of RIPK1 in a panel of cell lines. A, Chemical structures of RIPK1 PROTAC, LD4172, and its negative control, LD4172-NC. […] B, Quantification of RIPK1 levels in both Jurkat and B16F10 cells treated with LD4172 at indicated concentrations for 24 h, followed by Western blotting. C, DC50 and Dmax of LD4172 in various human and mouse cell lines. DC50, the drug concentration causing 50% protein degradation; Dmax, the maximum level of protein degradation. D, RIPK1 degradation kinetics induced by LD4172 treatment (1 μM) and resynthesis kinetics upon washout of LD4172 in both Jurkat and B16F10 cells. E, Quantification of D. The degradation half-life of RIPK1 induced by LD4172 (1 μM) is <2 h in Jurkat and B16F10 cells. […] F, NanoBRET based in-cell RIPK1 target engagement. HEK293 cells were transfected with a plasmid expressing nLuc-RIPK1 fusion protein for 24 h, followed by incubating with a RIPK1 NanoBRET tracer (500 nM) and different concentrations of LD4172 and LD4172-NC (n=3). G, Time-resolved fluorescence resonance energy transfer (TR-FRET) based biochemical binding assay for RIPK1. GST-tagged human RIPK1 (1 nM), Tb-labeled anti-GST antibody (0.3 nM), a RIPK1 TR-FRET tracer (350 nM) and different concentrations of LD4172 (n=3) were incubated for 2 hours, followed by TR-FRET measurements with an excitation wavelength at 340 nm and emission wavelengths at 495 and 520 nm. H, NanoBRET based in-cell assay for ternary complex formation. HEK293T cells were co-transfected with nLuc-RIPK1 and VHL-HaloTag plasmids for 24 h, followed by treatment with indicated concentrations of LD4172 or LD4172-NC (n=3). I, LD4172 induced RIPK1 degradation depends on ternary complex formation, neddylation and proteasome activity. Representative immunoblots of RIPK1 in both Jurkat and B16F10 cells. Cells were treated with RIPK1 inhibitor (T2I), VHL ligand, a neddylation inhibitor (MLN4924) or a proteasome inhibitor (Carfilzomib) at indicated concentrations for 4 hours, followed by LD4172 treatment for 4 hours. J, Proteome profiling of LD4172 induced protein degradation. MDA-MB- 231 cells were treated with LD4172 (200 nM) or LD4172-NC (200 nM) for 6 h (n=3). In total, ~10,000 proteins were quantified in the proteomics experiment. […] Blue dots represent kinases that are inhibited by the warhead of LD4172 but not degraded by LD4172.
To elucidate the formation of a binary complex during RIPK1 degradation, we developed a competitive NanoBRET (Nano-Bioluminescence Resonance Energy transfer)-based target engagement (TE) assay to quantify the binding between RIPK1 and LD4172 in cells[12],[13]. First, we developed a RIPK1 tracer by conjugating the LD4172 warhead T2I with a BODIPY-590 fluorescent dye, dubbed T2–590 (refer to Supporting Information for details). The dissociation equilibrium constant (Kd) between the tracer and RIPK1 was determined to be 0.5 μM by titrating the tracer in HEK293T cells expressing a nLuc-RIPK1 fusion protein. […] This is usually expected, considering that the large molecular weight of LD4172 may lead to poor cellular permeability.

RIPK1 [2] = molecular target: T3, RIPK1 (Mus musculus, UniProt Q60855); test: RIPK1 degradation in B16F10 mouse melanoma cells, Western blotting; format: cell-based; design: Quantification of RIPK1 levels in both Jurkat and B16F10 cells; endogenous in cells; host or cells: B16F10; conditions: pre-treatment 4 hours, then LD4172 4 hours
T3 sequence (Q60855 1-656): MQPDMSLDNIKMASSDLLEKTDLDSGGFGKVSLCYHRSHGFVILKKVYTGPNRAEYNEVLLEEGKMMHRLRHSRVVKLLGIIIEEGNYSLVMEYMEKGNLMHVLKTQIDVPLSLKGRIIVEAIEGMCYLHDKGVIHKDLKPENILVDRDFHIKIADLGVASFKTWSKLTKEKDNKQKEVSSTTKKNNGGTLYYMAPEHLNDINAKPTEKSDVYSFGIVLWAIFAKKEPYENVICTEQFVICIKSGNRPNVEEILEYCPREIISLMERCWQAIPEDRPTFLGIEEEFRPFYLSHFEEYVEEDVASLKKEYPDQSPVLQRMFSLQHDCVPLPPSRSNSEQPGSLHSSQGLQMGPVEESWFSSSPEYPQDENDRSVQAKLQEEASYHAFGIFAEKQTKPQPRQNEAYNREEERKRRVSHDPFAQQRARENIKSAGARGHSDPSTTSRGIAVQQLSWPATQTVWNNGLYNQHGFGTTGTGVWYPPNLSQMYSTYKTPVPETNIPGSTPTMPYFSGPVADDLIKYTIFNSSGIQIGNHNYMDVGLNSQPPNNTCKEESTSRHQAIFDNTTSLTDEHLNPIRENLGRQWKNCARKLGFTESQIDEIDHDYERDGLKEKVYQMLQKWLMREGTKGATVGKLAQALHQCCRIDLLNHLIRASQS
Excerpt: (§1) Figure 1 Design and screen of RIPK1 PROTACs. A, Chemical structure and docking modeling of type II inhibitor 1 with the kinase domain of RIPK1 (PDB: 4NEU). The group exposed to solvent region is highlighted with yellow circle. B, Chemical structure and co-crystal structure of type III inhibitor 2 in complex with RIPK1 (PDB: 6R5F). The solventexposed group of inhibitor 2 is highlighted with yellow circle. C, A small library design of RIPK1 PROTACs. Either Type II inhibitor 1 or type III inhibitor 2 is conjugated with various E3 ligase ligands or adamantane tag to generate a small library of RIPK1 PROTACs. D, Quantification of RIPK1 levels in Jurkat cells treated with indicated compounds for 24 h at 0, 0.1, 1 and 10 μM, followed by Western blotting. E, Quantification of D. F, Quantification of RIPK1 levels in both Jurkat and B16F10 cells treated with type II inhibitor-based PROTACs with different linker lengths for 24 h, followed by Western blotting. G, Quantification of F.
(§2) Figure 2 LD4172, a RIPK1 PROTAC, induces potent and highly specific degradation of RIPK1 in a panel of cell lines. […] B, Quantification of RIPK1 levels in both Jurkat and B16F10 cells treated with LD4172 at indicated concentrations for 24 h, followed by Western blotting. […] G, Time-resolved fluorescence resonance energy transfer (TR-FRET) based biochemical binding assay for RIPK1. […]

RIPK1 [3] = molecular target: T4, RIPK1 (Homo sapiens, UniProt Q13546); test: RIPK1 degradation in Jurkat cells, Western blotting; format: cell-based; conditions: pre-treatment 4 hours, then LD4172 4 hours
T4 construct: Quantification of RIPK1 levels in Jurkat cells treated with indicated compounds for 24 h; endogenous in cells; host or cells: Jurkat
T4 sequence (Q13546 1-671): T2 sequence (Q13546 1-671)
Excerpt: as §1, §2

Row | SMILES | ternary complex formation, NanoBRET between RIPK1 and VHL (RIPK1 and VHL) | target engagement (TE) compared with LD4172 [1] | IC50 ([1]; HEK293 cells, tracer 500 nM, n=3, read-out: IC50 (nM), Fig. 2F) [nM] | effect on RIPK1 degradation by LD4172 (RIPK1 [2]) | effect on RIPK1 degradation by LD4172 (RIPK1 [3])
1 | Cc1ncsc1-c1ccc([C@H](C)NC(=O)[C@H]2C[C@H](O)CN2C(=O)[C@@H](NC(=O)CCCCCCCCCCC(=O)NCCCn2cc(-c3ccc4c(c3)CCN4C(=O)Cc3cccc(OC(F)(F)F)c3)c3c(N)ncnc32)C(C)(C)C)cc1 [LD4172-NC] | not | TE similar to that of LD4172 | 1850 | – | –
2 | NS(=O)(=O)OC[C@@H]1C[C@@H](n2ccc3c(N[C@H]4CCc5ccccc54)ncnc32)C[C@@H]1O [MLN4924] | – | – | – | reversed | reversed
3 | CC(C)C[C@H](NC(=O)[C@H](CCc1ccccc1)NC(=O)CN1CCOCC1)C(=O)N[C@@H](Cc1ccccc1)C(=O)N[C@@H](CC(C)C)C(=O)[C@@]1(C)CO1 [carfilzomib] | – | – | – | reversed | reversed

Reference: PMC11042424, “Development of a First-in-Class RIPK1 Degrader to Enhance Antitumor Immunity” (Research Square, 2024)
